According to patent publication US8859590B2, “Inhibitors of BACE1 and methods for treating Alzheimer's disease” (Purdue Research Foundation, priority 2008, dated 2014):

Target: BACE1 (Memapsin 2) (Homo sapiens, UniProt P56817)
Test: Inhibition of BACE1 (memapsin 2) catalytic activity, fluorogenic substrate FS-2
Format: biochemical
Conditions: inhibition constants of BACE1; pH 4, 37° C.
Protocol: Inhibition of BACE1 (Memapsin 2). Potency of compounds are determined by measurement of their inhibition of memapsin 2 catalytic activity toward a fluorescent substrate. […] Briefly, assays are performed at pH 4, 37° C., by pre-incubation of memapsin 2 enzyme with compound for 20 minutes. Activity measure is initiated by addition of a fluorogenic substrate FS-2 (Bachem Americas, Torrance, Calif.). Fluorescent signal increase over time is measured as a rate of hydrolysis of the peptide substrate. […]

BACE1 (Memapsin 2), sequence (P56817 46-501): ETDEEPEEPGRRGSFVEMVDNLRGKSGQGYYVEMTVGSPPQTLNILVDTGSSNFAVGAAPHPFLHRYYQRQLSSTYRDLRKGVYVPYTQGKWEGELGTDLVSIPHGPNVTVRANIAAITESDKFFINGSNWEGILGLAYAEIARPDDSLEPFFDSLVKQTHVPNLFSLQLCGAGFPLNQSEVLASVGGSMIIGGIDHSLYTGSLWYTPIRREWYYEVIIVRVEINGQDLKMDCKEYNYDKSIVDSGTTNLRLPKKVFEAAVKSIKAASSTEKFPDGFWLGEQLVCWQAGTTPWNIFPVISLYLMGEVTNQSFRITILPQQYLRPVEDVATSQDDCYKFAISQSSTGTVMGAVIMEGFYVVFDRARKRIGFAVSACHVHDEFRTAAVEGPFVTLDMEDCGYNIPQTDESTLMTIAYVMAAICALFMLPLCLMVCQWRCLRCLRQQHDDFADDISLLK

`C[C@@H](NC(=O)c1cc(C(=O)N[C@H](CN[C@@H]2c3ccccc3C[C@@H]2O)Cc2ccccc2)cc(N(C)S(C)(=O)=O)c1)c1ccccc1` [Example 0407] was tested, and the Ki was < 1000 µM.
For `CC(C)CNC[C@@H](NC[C@H](Cc1ccccc1)NC(=O)c1cc(C(=O)N[C@H](C)c2ccccc2)cc(N(C)S(C)(=O)=O)c1)[C@@H](O)CC(C)C` [Example 1479], the Ki was < 0.1 µM.
With `Cc1csc(CN(C)C(=O)c2cccc(C(=O)N[C@H](CN[C@H](C(=O)NCC(C)C)[C@H](C)O)Cc3ccccc3)c2)n1` [Example 0637] the Ki was < 1000 µM.
With `COC(=O)[C@H](NC[C@H](Cc1ccccc1)NC(=O)c1cccc(C(=O)N(C)Cc2nc(C)cs2)c1)[C@@H](C)O` [Example 0667] the Ki was > 1000 µM.
For `Cc1csc(CN(C)C(=O)c2cccc(C(=O)N[C@H](CN[C@@H]3c4ccccc4C[C@@H]3O)Cc3ccccc3)c2)n1` [Example 0647], the Ki was < 1000 µM.
`C[C@@H](NC(=O)c1cc(C(=O)N[C@H](CN[C@H](CO)Cc2ccccc2)Cc2ccccc2)cc(N(C)S(C)(=O)=O)c1)c1ccccc1` [Example 0397] was tested, and the Ki was < 1000 µM.
With `COc1cccc([C@H](NC[C@H](Cc2ccccc2)NC(=O)c2cccc(C(=O)N(C)Cc3nc(C)cs3)c2)[C@H](O)Cc2ccccc2)c1` [Example 0449] the Ki was > 1000 µM.
In the case of `C[C@@H](NC(=O)c1cc(C(=O)N[C@H](CN[C@H]2c3ccccc3C[C@H]2O)Cc2ccccc2)cc(N(C)S(C)(=O)=O)c1)c1ccccc1` [Example 0427], the Ki is reported as < 1000 µM.
In the case of `COC(=O)[C@H](NC[C@H](Cc1ccccc1)NC(=O)c1cc(C(=O)N[C@H](C)c2ccccc2)cc(N(C)S(C)(=O)=O)c1)[C@@H](C)O` [Example 0417], the Ki is reported as < 1000 µM.
With `CC(C)CNC[C@@H](NC[C@H](Cc1ccccc1)NC(=O)c1cc(C(=O)N[C@H](C)c2ccccc2)cc(N(C)S(C)(=O)=O)c1)[C@H](C)O` [Example 1439] the Ki was < 0.1 µM.
`COc1cccc([C@@H](NC[C@H](Cc2ccccc2)NC(=O)c2cccc(C(=O)N(C)Cc3nc(C)cs3)c2)[C@H](O)Cc2ccccc2)c1` [Example 0439] was tested, and the Ki was > 1000 µM.
